Measured values as given in US20150037255A1, “PHTHALOCYANINE DYE-CONTAINING CONTRAST AGENT FOR PHOTOACOUSTIC IMAGING” (CANON KABUSHIKI KAISHA, priority 2013, published 2015).

Assay: Hydrophobicity evaluation of hydrophobic metal phthalocyanine dye by TLC (Rf value)
Type: physicochemical
Details: TLC glass plate RP-18, methanol containing 1% by weight lithium chloride; value of the dye used
Protocol: To compare the hydrophobicities of hydrophobic metal phthalocyanine dyes, evaluation was carried out using a thin-layer liquid chromatography (hereinafter sometimes abbreviated as TLC) method.
A TLC glass plate, RP-18 (from Merck & Co., Inc.), was used as a development plate, and a methanol solution containing 1% by weight of lithium chloride was used as a development solvent.
According to an established method, a dye solution was spotted on the starting line and the relative migration distance (hereinafter sometimes abbreviated as Rf value) was calculated based on the following equation. Rf value=the distance from the starting line to the center of the spot of the component/the distance from the starting line to the top of the solvent

Rf Value | Substance
0.06 | Copper (II) 2,9,16,23-tetra-tert-butyl-29H,31H-phthalocyanine
0.10 | Zinc 2,9,16,23-tetra-tert-butyl-29H,31H-phthalocyanine
0.12 | tert-butyl silicon-[bis trimethylsiloxy]-phthalocyanine
0.08 | Cobalt 2,9,16,23-tetra-tert-butyl-29H,31H-phthalocyanine
